Test results taken from the supplement of paper PMC11061612.

How the values were obtained:
Test in all cases: combination Emax (second highest fraction inhibited in the dose matrix, 72 h); higher = more inhibition; extreme values may be limits of the assay
ACHN (Kidney Carcinoma) = test system: ACHN (Kidney Carcinoma)
Procedure, shortened: (§1)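 Cell lines in DMEM/F12 or RPMI with 10% FBS were plated in 1536-well plates, held 24 hours at 37°C, 5% CO2, then given two-drug dose matrices for 72 hours (DMSO typically 0.2%). Viability was read by CellTiter-Glo 2.0 luminescence and scaled as inhibition from 0 (vehicle wells) to 1 (blank wells). Combination Emax is the second-highest inhibition in the matrix; Bliss excess is observed combination effect minus expected EA + EB − EA·EB, EA and EB being single-agent effects.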

[1] = test system: AMO-1 (Plasma Cell Myeloma)
Procedure, shortened: as §1

[2] = test system: BT-549 (Breast Carcinoma)
Procedure, shortened: as §1

D-263MG (Glioblastoma) = test system: D-263MG (Glioblastoma)
Procedure, shortened: as §1

[3] = test system: EFM-19 (Breast Carcinoma)
Procedure, shortened: as §1

EW-24 (Ewing's Sarcoma) = test system: EW-24 (Ewing's Sarcoma)
Procedure, shortened: as §1

[4] = test system: Hs-766T (Pancreatic Carcinoma)
Procedure, shortened: as §1

[5] = test system: KARPAS-299 (T-Cell Non-Hodgkin's Lymphoma)
Procedure, shortened: as §1

[6] = test system: KYSE-450 (Esophageal Squamous Cell Carcinoma)
Procedure, shortened: as §1

[7] = test system: LU-65 (Non-Small Cell Lung Carcinoma)
Procedure, shortened: as §1

[8] = test system: MIA-PaCa-2 (Pancreatic Carcinoma)
Procedure, shortened: as §1

[9] = test system: MLMA (Other Blood Carcinomas)
Procedure, shortened: as §1

[10] = test system: NCI-H358 (Lung Adenocarcinoma)
Procedure, shortened: as §1

[11] = test system: NCI-H727 (Other Solid Carcinomas)
Procedure, shortened: as §1

[12] = test system: PANC-04-03 (Pancreatic Carcinoma)
Procedure, shortened: as §1

[13] = test system: RF-48 (B-Cell Non-Hodgkin's Lymphoma)
Procedure, shortened: as §1

TGW (Neuroblastoma) = test system: TGW (Neuroblastoma)
Procedure, shortened: as §1

TK10 (Kidney Carcinoma) = test system: TK10 (Kidney Carcinoma)
Procedure, shortened: as §1

UACC-62 (Melanoma) = test system: UACC-62 (Melanoma)
Procedure, shortened: as §1

YH-13 (Glioblastoma) = test system: YH-13 (Glioblastoma)
Procedure, shortened: as §1

| Compound | combination Emax (ACHN (Kidney Carcinoma)) | combination Emax [1] | combination Emax [2] | combination Emax (D-263MG (Glioblastoma)) | combination Emax [3] | combination Emax (EW-24 (Ewing's Sarcoma)) | combination Emax [4] | combination Emax [5] | combination Emax [6] | combination Emax [7] | combination Emax [8] | combination Emax [9] | combination Emax [10] | combination Emax [11] | combination Emax [12] | combination Emax [13] | combination Emax (TGW (Neuroblastoma)) | combination Emax (TK10 (Kidney Carcinoma)) | combination Emax (UACC-62 (Melanoma)) | combination Emax (YH-13 (Glioblastoma)) |
| --- | --- | --- | --- | --- | --- | --- | --- | --- | --- | --- | --- | --- | --- | --- | --- | --- | --- | --- | --- | --- |
| CN(CCO)CC[C@H](CSc1ccccc1)Nc1ccc(S(=O)(=O)NC(=O)c2ccc(N3CCC([C@@H](O)c4ccccc4-c4ccc(Cl)cc4)CC3)cc2)cc1S(=O)(=O)C(F)(F)F [AZD4320] + C=CCn1c(=O)c2cnc(Nc3ccc(N4CCN(C)CC4)cc3)nc2n1-c1cccc(C(C)(C)O)n1 [AZD1775] (first compound max 1 µM, partner max 1 µM) | 0.986 | 0.732 | 0.751 | 0.381 | 0.716 | 0.913 | 0.398 | 0.938 | 0.64 | 0.763 | 0.6 | 0.994 | 0.498 | 0.515 | 0.486 | 0.885 | 1 | 0.571 | 0.71 | 0.449 |
| CN(CCO)CC[C@H](CSc1ccccc1)Nc1ccc(S(=O)(=O)NC(=O)c2ccc(N3CCC([C@@H](O)c4ccccc4-c4ccc(Cl)cc4)CC3)cc2)cc1S(=O)(=O)C(F)(F)F [AZD4320] + Nc1ccn([C@@H]2O[C@H](CO)[C@@H](O)C2(F)F)c(=O)n1 [Gemcitabine] (first compound max 1 µM, 7x7, partner max 0.3 µM) | 0.969 | 0.953 | 0.199 | 0.363 | 0.702 | 0.98 | 0.311 | 0.812 | 0.202 | 0.492 | 0.771 | 0.896 | 0.396 | 0.634 | 0.461 | 0.955 | 0.934 | 0.301 | 0.72 | 0.852 |
| Cc1cc2ncnn2cc1Nc1ncc2c(n1)n(C1CCOCC1)c(=O)n2C [AZD7648] + C=CCn1c(=O)c2cnc(Nc3ccc(N4CCN(C)CC4)cc3)nc2n1-c1cccc(C(C)(C)O)n1 [AZD1775] (first compound max 10 µM, partner max 1 µM) | 0.893 | 0.755 | 0.679 | 0.392 | 0.615 | 0.458 | 0.555 | 0.927 | 0.638 | 0.692 | 0.558 | 0.89 | 0.524 | 0.351 | 0.555 | 0.532 | 0.732 | 0.63 | 0.536 | 0.449 |
| CN(CCO)CC[C@H](CSc1ccccc1)Nc1ccc(S(=O)(=O)NC(=O)c2ccc(N3CCC([C@@H](O)c4ccccc4-c4ccc(Cl)cc4)CC3)cc2)cc1S(=O)(=O)C(F)(F)F [AZD4320] + Cc1cc2ncnn2cc1Nc1ncc2c(n1)n(C1CCOCC1)c(=O)n2C [AZD7648] (first compound max 1 µM, 7x7, partner max 10 µM) | 0.162 | 0.216 | 0.178 | 0.108 | 0.735 | 0.851 | 0.405 | 0.221 | 0.111 | 0.494 | 0.178 | 0.474 | 0.186 | 0.198 | 0.229 | 0.809 | 0.979 | 0.444 | 0.248 | 0.227 |
| Cc1cc2ncnn2cc1Nc1ncc2c(n1)n(C1CCOCC1)c(=O)n2C [AZD7648] + CN(C)CCCOc1ccc(-c2ccc3ncc4c(c3c2)n(C2CCOCC2)c(=O)n4C)cn1 [AZD0156] (first compound max 10 µM, 7x7, partner max 1 µM) | 0.293 | 0.431 | 0.254 | 0.25 | 0.403 | 0.364 | 0.525 | 0.237 | 0.252 | 0.334 | 0.401 | 0.671 | 0.349 | 0.294 | 0.347 | 0.349 | 0.351 | 0.442 | 0.302 | 0.345 |
| Cc1cc2ncnn2cc1Nc1ncc2c(n1)n(C1CCOCC1)c(=O)n2C [AZD7648] + O=C(c1cc(Cc2n[nH]c(=O)c3ccccc23)ccc1F)N1CCN(C(=O)C2CC2)CC1 [Olaparib] (first compound max 10 µM, 7x7, partner max 10 µM) | 0.211 | 0.196 | 0.18 | 0.094 | 0.401 | 0.214 | 0.353 | 0.151 | 0.0972 | 0.312 | 0.22 | 0.279 | 0.279 | 0.218 | 0.183 | 0.322 | 0.344 | 0.234 | 0.253 | 0.16 |
| CN(CCO)CC[C@H](CSc1ccccc1)Nc1ccc(S(=O)(=O)NC(=O)c2ccc(N3CCC([C@@H](O)c4ccccc4-c4ccc(Cl)cc4)CC3)cc2)cc1S(=O)(=O)C(F)(F)F [AZD4320] + C[C@@H]1COCCN1C2=NC(=NC(=C2)C3(CC3)[S@](=N)(=O)C)C4=C5C=CNC5=NC=C4 [AZD6738] (first compound max 1 µM, 7x7, partner max 10 µM) | 0.986 | 0.826 | 0.552 | 0.758 | 0.716 | 0.954 | 0.6 | 0.955 | 0.547 | 0.781 | 0.632 | 0.83 | 0.705 | 0.695 | 0.461 | 0.917 | 0.949 | 0.866 | 0.7 | 0.568 |
| Cc1cc2ncnn2cc1Nc1ncc2c(n1)n(C1CCOCC1)c(=O)n2C [AZD7648] + COc1cc([C@@H]2c3cc4c(cc3[C@@H](O[C@@H]3O[C@@H]5CO[C@@H](C)O[C@H]5[C@H](O)[C@H]3O)[C@H]3COC(=O)[C@H]23)OCO4)cc(OC)c1O [Etoposide] (first compound max 10 µM, 7x7, partner max 10 µM) | 0.772 | 0.942 | 0.736 | 0.618 | 0.615 | 0.714 | 0.253 | 0.976 | 0.459 | 0.897 | 0.945 | 0.816 | 0.628 | 0.269 | 0.335 | 0.755 | 0.522 | 0.592 | 0.642 | 0.641 |
| C[C@@H](c1ccc2nccn2c1)n1nnc2ncc(-c3cnn(C)c3)nc21 [Savolitinib] + Cc1c2c(nn1C)CSCc1cc(n(C)n1)CSc1cc(c3ccccc3c1)OCCCc1c(C(=O)O)n(C)c3c-2c(Cl)ccc13 [AZD5991] (first compound max 1 µM, 7x7, partner max 1 µM) | 0.174 | 1 | 0.225 | 0.366 | 0.223 | 0.196 | 0.233 | 0.936 | 0.115 | 0.179 | 0.204 | 0.33 | 0.108 | 0.203 | 0.165 | 0.275 | 0.214 | 0.116 | 0.545 | 0.276 |
| CN(CCO)CC[C@H](CSc1ccccc1)Nc1ccc(S(=O)(=O)NC(=O)c2ccc(N3CCC([C@@H](O)c4ccccc4-c4ccc(Cl)cc4)CC3)cc2)cc1S(=O)(=O)C(F)(F)F [AZD4320] + C1CN(CCC1(C(=O)N[C@@H](CCO)C2=CC=C(C=C2)Cl)N)C3=NC=NC4=C3C=CN4 [Capivasertib] (first compound max 1 µM, 7x7, partner max 3 µM) | 0.121 | 0.317 | 0.294 | 0.0907 | 0.87 | 0.869 | 0.204 | 0.0749 | 0.199 | 0.612 | 0.133 | 0.384 | 0.273 | 0.484 | 0.178 | 0.817 | 0.924 | 0.39 | 0.341 | 0.266 |
| CN(CCO)CC[C@H](CSc1ccccc1)Nc1ccc(S(=O)(=O)NC(=O)c2ccc(N3CCC([C@@H](O)c4ccccc4-c4ccc(Cl)cc4)CC3)cc2)cc1S(=O)(=O)C(F)(F)F [AZD4320] + CC(=O)O[C@H]1C(=O)[C@@]2(C)[C@H]([C@H](OC(=O)c3ccccc3)[C@]3(O)C[C@H](OC(=O)[C@H](O)[C@@H](NC(=O)c4ccccc4)c4ccccc4)C(C)=C1C3(C)C)[C@]1(OC(C)=O)CO[C@@H]1C[C@@H]2O [Paclitaxel] (first compound max 1 µM, 7x7, partner max 3 µM) | 0.71 | 1 | 0.853 | 0.95 | 1 | 0.968 | 0.436 | 0.837 | 0.875 | 0.951 | 0.898 |  | 0.916 | 0.82 | 0.585 | 0.989 | 1 | 0.821 | 0.808 | 1 |
